Experimental data as given in patent US7595327B2, “Beta-sulfonamide hydroxamic acid inhibitors of tace/matrix metalloproteinase” (priority 2005, dated 2009).

Tests used:
[1] = target: T1, TACE (catalytic domain of the recombinant TACE protein) (Homo sapiens, UniProt P78536); assay: TACE FRET assay using TACE Cat; format: biochemical; details: FRET, pro-TNF-α substrate peptide; read-out: TACE IC50
T1 construct: The catalytic domain of the recombinant TACE protein was expressed and purified; made in house
T1 sequence (P78536 223-474 limits assumed): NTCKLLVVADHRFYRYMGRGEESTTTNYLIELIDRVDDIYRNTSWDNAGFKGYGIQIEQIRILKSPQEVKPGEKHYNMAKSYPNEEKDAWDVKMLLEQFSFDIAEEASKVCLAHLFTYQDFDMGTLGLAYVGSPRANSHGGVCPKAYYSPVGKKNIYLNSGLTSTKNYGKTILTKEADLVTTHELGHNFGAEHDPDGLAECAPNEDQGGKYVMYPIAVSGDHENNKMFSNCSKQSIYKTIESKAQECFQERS
Summary of the method: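 Recombinant TACE catalytic domain (1 ug/ml) pre-incubated 10 min at room temperature with inhibitor in 50 mM Tris-HCl pH 7.4, 25 mM NaCl, 4% glycerol, 0.005% Brij 35; Abz/Dpa pro-TNF-α peptide substrate added, fluorescence (Ex 320/Em 420) followed 10 min; IC50 from initial rates by Hill fit.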

[2] = target: T2, recombinant human catalytic domain of MMP-1 (Homo sapiens, UniProt P03956); assay: In-vitro fluorescence assay of MMP-1 activity; format: biochemical
T2 construct: The source of enzyme in the assay was the recombinant human catalytic domain of MMP-1
T2 sequence (P03956 100-269 limits assumed): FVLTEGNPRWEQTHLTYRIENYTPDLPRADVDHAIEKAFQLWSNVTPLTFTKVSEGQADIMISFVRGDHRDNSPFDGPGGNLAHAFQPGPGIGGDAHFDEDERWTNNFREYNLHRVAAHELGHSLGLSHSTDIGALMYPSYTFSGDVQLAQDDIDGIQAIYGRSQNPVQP

recombinant human MMP-2 = target: T3, recombinant human MMP-2 (Homo sapiens, UniProt P08253); assay: In-vitro fluorescence assay of MMP-2 activity; format: biochemical
T3 sequence (P08253 110-660): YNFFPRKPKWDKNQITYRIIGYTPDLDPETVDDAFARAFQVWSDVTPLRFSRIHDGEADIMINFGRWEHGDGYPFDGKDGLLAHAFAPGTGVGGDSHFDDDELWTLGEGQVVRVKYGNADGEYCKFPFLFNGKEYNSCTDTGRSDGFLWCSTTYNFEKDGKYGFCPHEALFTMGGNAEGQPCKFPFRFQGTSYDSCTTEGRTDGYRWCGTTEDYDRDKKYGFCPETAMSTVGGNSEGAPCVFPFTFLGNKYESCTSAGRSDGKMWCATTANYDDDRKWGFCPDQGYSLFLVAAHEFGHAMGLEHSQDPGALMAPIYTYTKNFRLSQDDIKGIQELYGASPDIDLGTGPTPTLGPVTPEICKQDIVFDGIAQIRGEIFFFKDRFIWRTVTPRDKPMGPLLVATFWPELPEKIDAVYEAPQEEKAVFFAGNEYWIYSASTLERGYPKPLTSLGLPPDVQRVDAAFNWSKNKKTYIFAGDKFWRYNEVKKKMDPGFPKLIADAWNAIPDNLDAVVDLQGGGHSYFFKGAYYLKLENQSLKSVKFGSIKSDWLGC

recombinant human MMP-7 = target: T4, recombinant human MMP-7 (Homo sapiens, UniProt P09237); assay: In-vitro fluorescence assay of MMP-7 activity; format: biochemical
T4 construct: Active, recombinant human MMP-7 was purchased from Calbiochem (catalog #444270; expressed in E. coli, 19 kDa); purchased Calbiochem 444270; host or cells: E. coli
T4 sequence (P09237 95-267): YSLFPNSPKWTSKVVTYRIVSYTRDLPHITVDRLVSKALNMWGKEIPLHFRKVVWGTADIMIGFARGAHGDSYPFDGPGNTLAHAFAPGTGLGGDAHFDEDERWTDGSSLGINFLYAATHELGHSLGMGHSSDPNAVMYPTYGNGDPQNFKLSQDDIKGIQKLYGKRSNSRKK
Description: The method was similar to that for the determination of MMP-1 activity, described above, with the following differences. Active, recombinant human MMP-7 was purchased from Calbiochem (catalog #444270; expressed in E. coli, 19 kDa). […] The concentration of the substrate stock was spectrophotometrically determined using the extinction coefficient at 410 nm of 7500 M^−1 cm^−1. The assay buffer (pH 7.4) consisted of 50 mM Hepes, 100 mM NaCl, 5 mM CaCI2, and 0.005% Brij-35. […] The plates were then incubated at room temperature for 30 minutes. The enzymatic reactions were initiated by adding substrate to a final concentration of 15 μM and were mixed by pipelting up and down. The final DMSO concentration in the assay was 10% and the final, total assay volume was 200 μl. […]

[3] = tested on: TNF-α secretion in Raw 264.7 cells; assay: Cell-based assay for inhibition of TNF-α secretion in Raw cells; details: Mus musculus, RAW264.7, LPS 100 ng/ml, 4 hr
Summary of the method: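 Confluent Raw 264.7 cells were seeded overnight, refed, and pre-incubated 1 hr with compound (0.2% final DMSO), then stimulated with LPS at 100 ng/ml final for 4 hr at 37° C. Supernatant TNF-α measured by ELISA; % inhibition and IC50 by curve fitting.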

IC50 [1] [nM]	IC50 [2] [nM]	IC50 (recombinant human MMP-2) [nM]	IC50 (recombinant human MMP-7) [nM]	IC50 [3] [nM]	Compound
0.6	> 16700	> 10000	668	24	Cc1cc(COc2ccc(S(=O)(=O)N[C@@H]3CN(S(C)(=O)=O)C[C@@H]3C(=O)NO)cc2)c2ccccc2n1 (relative stereo) [Example 17, cis-N-Hydroxy-4-[({4-[(2-methylquinolin-4-yl)methoxy]phenyl}sulfonyl)amino]-1-(methylsulfonyl) pyrrolidine-3-carboxamide]
1.1	> 16700	> 10000	812	20	Cc1cc(COc2ccc(S(=O)(=O)N[C@@H]3CN(C=O)C[C@@H]3C(=O)NO)cc2)c2ccccc2n1 (relative stereo) [Example 20, cis-1-Formyl-N-hydroxy-4-[({4-[(2-methylquinolin-4-yl)methoxy]phenyl}sulfonyl)amino]pyrrolidine-3-carboxamide]
1.3	> 16700	> 16700	1170	51	CCNC(=O)N1C[C@H](C(=O)NO)[C@H](NS(=O)(=O)c2ccc(OCc3cc(C)nc4ccccc34)cc2)C1 (relative stereo) [Example 23, cis-1-Ethyl-N-hydroxy-4-[({4-[(2-methylquinolin-4-yl)methoxy]phenyl}sulfonyl)amino]pyrrolidine-1,3-dicarboxamide]
0.6	> 16700	> 16700	827	12	Cc1cc(COc2ccc(S(=O)(=O)N[C@H]3COC[C@H]3C(=O)NO)cc2)c2ccccc2n1 (stereo in doubt) [Example 26, (3S,4R)-4-[4-(2-Methyl-quinolin-4-ylmethoxy)-benzenesulfonylamino]-tetrahydro-furan-3-carboxylic acid hydroxyamide]
< 0.6	> 16700	> 10000	444	9	Cc1cc(COc2ccc(S(=O)(=O)N[C@@H]3CCC[C@@H]3C(=O)NO)cc2)c2ccccc2n1 [Example 13, (1S,2R)-N-Hydroxy-2-[({4-[(2-methylquinolin-4-yl)methoxy]phenyl}sulfonyl)amino]cyclopentanecarboxamide]
1.4	> 16700	> 16700	4620	58	Cc1cc(COc2ccc(S(=O)(=O)N[C@@H]3CN(C(=O)NC(C)(C)C)CC[C@@H]3C(=O)NO)cc2)c2ccccc2n1 [Example 35, 3-[4-(2-Methyl-quinolin4-ylmethoxy)-benzenesulfonylamino]-piperidine-1,4-dicarboxylic acid 1-tert-butylamide 4-hydroxyamide]
